Three molecules from ChEMBL document CHEMBL4387701, “H2depda: An acyclic adjuvant potentiates meropenem activity in vitro against metallo-β-lactamase-producing enterobacterales” (Eur J Med Chem, 2019) can be followed below.

Converted amounts (≈) assume the structure as drawn. The source made the active and inactive calls. The calls are words filed in the database; no cut-off is given here.

Data set [1] has as its system Escherichia coli. As to the kind of experiment: Inhibition of NDM1 in Escherichia coli isolate 8 assessed as potentiation of meropenem-induced antibacterial activity by measuring meropenem MIC after 24 hrs by broth microdilution assay (reference value: 320 ug/ml). A general note: Dilution methods test growth across graded concentrations, often in twofold steps.
Data set [2] deals with Enterobacter cloacae. As to the kind of experiment: Inhibition of NDM1 in Enterobacter cloacae isolate 6 assessed as potentiation of meropenem-induced antibacterial activity by measuring meropenem MIC after 24 hrs by broth microdilution assay (reference value: 320 ug/ml).
Data set [3] relates to Enterobacter cloacae. As to the kind of experiment: Inhibition of NDM1 in Enterobacter cloacae isolate 5 assessed as potentiation of meropenem-induced antibacterial activity by measuring meropenem MIC after 24 hrs by broth microdilution assay (reference value: 640 ug/ml).
Data set [4] has as its system Enterobacter cloacae. Put plainly: Inhibition of NDM1 in Enterobacter cloacae isolate 4 assessed as potentiation of meropenem-induced antibacterial activity by measuring meropenem MIC after 24 hrs by broth microdilution assay (reference value: 640 ug/ml).
Data set [5] deals with Escherichia coli. Put plainly: Inhibition of NDM-7 in Escherichia coli isolate 2 assessed as potentiation of meropenem-induced antibacterial activity by measuring meropenem MIC after 24 hrs by broth microdilution assay (reference value: 640 ug/ml).
In data set [6] the target is T1, Metallo-beta-lactamase NDM-4 (Escherichia coli) (UniProt H6WZS9).
T1 sequence (whole entry): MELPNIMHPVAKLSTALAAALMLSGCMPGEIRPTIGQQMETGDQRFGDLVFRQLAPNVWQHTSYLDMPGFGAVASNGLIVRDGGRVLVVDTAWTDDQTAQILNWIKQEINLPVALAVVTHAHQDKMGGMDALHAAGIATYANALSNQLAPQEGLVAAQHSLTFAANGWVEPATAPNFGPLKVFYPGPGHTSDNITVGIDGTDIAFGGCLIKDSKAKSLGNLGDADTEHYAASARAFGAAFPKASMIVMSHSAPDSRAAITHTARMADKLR
As to the kind of experiment: Inhibition of NDM4 in Escherichia coli isolate 3 assessed as potentiation of meropenem-induced antibacterial activity by measuring meropenem MIC after 24 hrs by broth microdilution assay (reference value: 1280 ug/ml).

The subject of data set [7] is Escherichia coli. As to the kind of experiment: Inhibition of NDM1 in Escherichia coli isolate 1 assessed as potentiation of meropenem-induced antibacterial activity by measuring meropenem MIC after 24 hrs by broth microdilution assay (reference value: 1280 ug/ml).
Data set [8] relates to Klebsiella pneumoniae. As to the kind of experiment: Inhibition of IMP4 in Klebsiella pneumoniae isolate 10 assessed as potentiation of meropenem-induced antibacterial activity by measuring meropenem MIC after 24 hrs by broth microdilution method (reference value: 64 ug/ml).
Data set [9] has as its system Escherichia coli. As to the kind of experiment: Inhibition of IMP4 in Escherichia coli isolate 11 assessed as potentiation of meropenem-induced antibacterial activity by measuring meropenem MIC after 24 hrs by broth microdilution method (reference value: 32 ug/ml).
For data set [10], the system named is Klebsiella pneumoniae. Put plainly: Inhibition of IMP4 in Klebsiella pneumoniae isolate 12 assessed as potentiation of meropenem-induced antibacterial activity by measuring meropenem MIC after 24 hrs by broth microdilution method (reference value: 16 ug/ml).
Data set [11] relates to Klebsiella pneumoniae. Put plainly: Inhibition of IMP4 in Klebsiella pneumoniae isolate 13 assessed as potentiation of meropenem-induced antibacterial activity by measuring meropenem MIC after 24 hrs by broth microdilution method (reference value: 320 ug/ml).
Data set [12] relates to Escherichia coli. As to the kind of experiment: Inhibition of IMP4 in Escherichia coli isolate 14 assessed as potentiation of meropenem-induced antibacterial activity by measuring meropenem MIC after 24 hrs by broth microdilution method (reference value: 16 ug/ml).
Data set [13] concerns Enterobacter cloacae. As to the kind of experiment: Inhibition of IMP4 in Enterobacter cloacae isolate 15 assessed as potentiation of meropenem-induced antibacterial activity by measuring meropenem MIC after 24 hrs by broth microdilution method (reference value: 32 ug/ml).
The test system of data set [14] is Enterobacter cloacae. Put plainly: Inhibition of IMP4 in Enterobacter cloacae isolate 16 assessed as potentiation of meropenem-induced antibacterial activity by measuring meropenem MIC after 24 hrs by broth microdilution method (reference value: 64 ug/ml).
The test system of data set [15] is Klebsiella pneumoniae. As to the kind of experiment: Inhibition of IMP4 in Klebsiella pneumoniae isolate 17 assessed as potentiation of meropenem-induced antibacterial activity by measuring meropenem MIC after 24 hrs by broth microdilution method (reference value: 32 ug/ml).
For data set [16], the system named is Escherichia coli. Put plainly: Inhibition of IMP4 in Escherichia coli isolate 18 assessed as potentiation of meropenem-induced antibacterial activity by measuring meropenem MIC after 24 hrs by broth microdilution method (reference value: 16 ug/ml).
For data set [17], the system named is Proteus mirabilis. Put plainly: Inhibition of IMP4 in Proteus mirabilis isolate 19 assessed as potentiation of meropenem-induced antibacterial activity by measuring meropenem MIC after 24 hrs by broth microdilution method (reference value: 320 ug/ml).
Data set [18] has as its target T1, Metallo-beta-lactamase NDM-4 (Escherichia coli). Put plainly: Inhibition of NDM4 in Escherichia coli isolate 3 assessed as potentiation of meropenem-induced bactericidal activity at 4 times MIC incubated for 24 hrs followed by replating on agar plates for 16 to 18 hrs and measured up to 24 hrs by time kill assay.
Data set [19] relates to Escherichia coli. As to the kind of experiment: Effect on growth of NDM4-positive Escherichia coli assessed as bacterial growth at 64 ug/mL after 24 hrs by broth microdilution method relative to control. In kind it is organism-based.
Data set [20] deals with T1, Metallo-beta-lactamase NDM-4 (Escherichia coli). As to the kind of experiment: Inhibition of Escherichia coli NDM4 assessed as potentiation of meropenem-induced antibacterial activity by measuring reduction in bacterial growth at 64 ug/mL after 24 hrs by broth microdilution method relative to control.
Data set [21] shares this target. Put plainly: Inhibition of Escherichia coli NDM4 assessed as potentiation of meropenem-induced antibacterial activity by measuring bacterial growth rate at 64 ug/mL after 24 hrs in presence of ZnCl2 by broth microdilution method relative to control.
In data set [22] the test system is Escherichia coli. As to the kind of experiment: Effect on growth of Escherichia coli isolate 1 after 24 hrs by broth microdilution assay. The class given is organism-based.
Data set [23] deals with Escherichia coli. Put plainly: Effect on growth of Escherichia coli isolate 2 after 24 hrs by broth microdilution assay. In kind it is organism-based.
Data set [24] relates to Escherichia coli. As to the kind of experiment: Effect on growth of Escherichia coli isolate 3 after 24 hrs by broth microdilution assay. The class given is organism-based.
In data set [25] the test system is Enterobacter cloacae. As to the kind of experiment: Effect on growth of Enterobacter cloacae isolate 4 after 24 hrs by broth microdilution assay. The class given is organism-based.
In data set [26] the test system is Enterobacter cloacae. As to the kind of experiment: Effect on growth of Enterobacter cloacae isolate 5 after 24 hrs by broth microdilution assay. The class given is organism-based.
For data set [27], the system named is Enterobacter cloacae. Put plainly: Effect on growth of Enterobacter cloacae isolate 6 after 24 hrs by broth microdilution assay. The class given is organism-based.
In data set [28] the test system is Citrobacter freundii. As to the kind of experiment: Effect on growth of Citrobacter freundii isolate 7 after 24 hrs by broth microdilution assay. The class given is organism-based.
Data set [29] has as its system Escherichia coli. As to the kind of experiment: Effect on growth of Escherichia coli isolate 8 after 24 hrs by broth microdilution assay. In kind it is organism-based.
In data set [30] the test system is Escherichia coli. Put plainly: Effect on growth of Escherichia coli isolate 9 after 24 hrs by broth microdilution assay. In kind it is organism-based.
The subject of data set [31] is Klebsiella pneumoniae. Put plainly: Effect on growth of Klebsiella pneumoniae isolate 10 after 24 hrs by broth microdilution method. The class given is organism-based.
In data set [32] the test system is Escherichia coli. Put plainly: Effect on growth of Escherichia coli isolate 11 after 24 hrs by broth microdilution method. The class given is organism-based.
The subject of data set [33] is Klebsiella pneumoniae. As to the kind of experiment: Effect on growth of Klebsiella pneumoniae isolate 12 after 24 hrs by broth microdilution method. In kind it is organism-based.
Data set [34] relates to Klebsiella pneumoniae. Put plainly: Effect on growth of Klebsiella pneumoniae isolate 13 after 24 hrs by broth microdilution method. In kind it is organism-based.
For data set [35], the system named is Escherichia coli. As to the kind of experiment: Effect on growth of Escherichia coli isolate 14 after 24 hrs by broth microdilution method. In kind it is organism-based.
In data set [36] the test system is Enterobacter cloacae. As to the kind of experiment: Effect on growth of Enterobacter cloacae isolate 15 after 24 hrs by broth microdilution method. The class given is organism-based.
The subject of data set [37] is Enterobacter cloacae. Put plainly: Effect on growth of Enterobacter cloacae isolate 16 after 24 hrs by broth microdilution method. The class given is organism-based.
For data set [38], the system named is Klebsiella pneumoniae. Put plainly: Effect on growth of Klebsiella pneumoniae isolate 17 after 24 hrs by broth microdilution method. The class given is organism-based.
Data set [39] concerns Escherichia coli. As to the kind of experiment: Effect on growth of Escherichia coli isolate 18 after 24 hrs by broth microdilution method. In kind it is organism-based.
Data set [40] deals with Proteus mirabilis. Put plainly: Effect on growth of Proteus mirabilis isolate 19 after 24 hrs by broth microdilution method. In kind it is organism-based.
For data set [41], the system named is Escherichia coli. Put plainly: Effect on growth of NDM4-positive Escherichia coli assessed as bacterial growth at 0.03125 ug/mL after 24 hrs by broth microdilution method relative to control. In kind it is functional.
Data set [42] deals with Escherichia coli ATCC 25922. Put plainly: Inhibition of IMP-4 in Escherichia coli ATCC 25922 assessed as potentiation of meropenem-induced antibacterial activity by measuring zone of inhibition by agar disk diffusion method. Background: A growth-free zone around the sample is the usual read-out of agar diffusion tests.
The target of data set [43] is T1, Metallo-beta-lactamase NDM-4 (Escherichia coli). As to the kind of experiment: Inhibition of NDM4 in Escherichia coli ATCC 25922 assessed as potentiation of meropenem-induced antibacterial activity by measuring zone of inhibition by agar disk diffusion method.
The nature of data set [44]: Inhibition of Stenotrophomonas maltophilia NDM1 expressed in Escherichia coli BL21 (DE3) expressing measured after 15 minutes at interval of 60 secs.

As for `O=C(O)CN1CCN(CC(=O)O)CCN(CC(=O)O)CC1`, the MIC in [1] amounted to 0.125 µg/mL; in [2] it was 0.0312 µg/mL; in data set [3] it was 0.25 µg/mL; in data set [4], 0.125 µg/mL; in [5], 0.25 µg/mL; in data set [6] it was 0.25 µg/mL. In addition, the MIC in data set [7] stood at 0.0312 µg/mL; in data set [8], 4 µg/mL; in data set [9] it was 1 µg/mL; in data set [10], 1 µg/mL; in data set [11], 4 µg/mL; in data set [12], 4 µg/mL. Besides, the MIC was found to be 1 µg/mL in data set [13]; 2 µg/mL in data set [14]; 4 µg/mL in [15]; 2 µg/mL in [16]; 4 µg/mL in data set [17]; 16 µg/mL (≈ 52.8 µM) in data set [22]. Further, the MIC in [23], in [24], in data set [25], in data set [26], in data set [27] and in data set [28] was 16 µg/mL (≈ 52.8 µM) in each case. The MIC in data set [29], in data set [30], in data set [31], in [32], in data set [33] and in data set [34] was 16 µg/mL (≈ 52.8 µM) each time. Further, the MIC in [35], in data set [36], in data set [37], in [38], in [39] and in data set [40] was 16 µg/mL (≈ 52.8 µM) in each case. Besides, the inhibition result in data set [18] and in data set [20] was “Active” throughout. Further, the Activity in data set [19] is 95%. The inhibition in data set [21] amounted to 81%.
Regarding `C[C@@H](O)[C@H]1C(=O)N2C(C(=O)O)=C(S[C@@H]3CN[C@H](C(=O)N(C)C)C3)[C@H](C)[C@H]12` [MEROPENEM], in [41], the Activity came out at 95%.
For the molecule `O=C(O)CN(CCN(CC(=O)O)CC(=O)O)CC(=O)O` [EDETIC ACID], the inhibition zone (IZ) in data set [42] worked out at 13.9 mm; in [43], 18.2 mm. Further, the IC50 in data set [44] is 8.47 µM.

A word on the inhibition: it is the share of the control response that was lost under treatment. What is called IC50 is the concentration that inhibits the measured activity by half.
